From paper PMC8199500, “Novel Bis- and Mono-Pyrrolo[2,3-d]pyrimidine and Purine Derivatives: Synthesis, Computational Analysis and Antiproliferative Evaluation” (Molecules, 2021)

Legend:
[1] = system: lung adenocarcinoma (A549) cells; experiment: MTT proliferation assay, A549 cells; type: cell-based, human
Procedure: (§1) Human carcinoma cell lines A549 (lung carcinoma), HeLa (cervical carcinoma), SW620 (colorectal adenocarcinoma, metastatic) and CFPAC-1 (pancreatic cancer, derived from metastatic: liver), and normal human foreskin (HFF-1) fibroblasts were obtained from the American Type Culture Collection (ATCC, Manassas, VA, USA). Cells were cultured in humidified atmosphere at 37 °C with 5% CO2. As growth medium, Dulbecco′s modified Eagle medium (DMEM) was used with the addition of fetal bovine serum (10%), L-glutamine (2 mM) and antibiotics: streptomycin ([…]) and penicillin (100 U/mL).
(§2) Cells were seeded onto 96-well microtiter plates at a seeding density of 3000 cells/well for carcinoma cell lines, and 5000 cells/well for normal human fibroblasts. The next day, cells were treated with test agents in five different concentrations (0.01–100 µM) and further incubated for 72 h. […] Following 72 h incubation, the MTT assay was performed and measured absorbances were transformed into percentage of cell growth as described previously. Results were obtained from three independent experiments. IC50 values were calculated using linear regression analysis and results were statistically analyzed by ANOVA, Tukey post-hoc test (p < 0.05).

[2] = system: cervical carcinoma (HeLa) cells; experiment: MTT proliferation assay, HeLa cells; type: cell-based, human; conditions: 72 h incubation
Procedure: as §1, §2

[3] = system: ductal pancreatic adenocarcinoma (CFPAC-1) cells; experiment: MTT proliferation assay, CFPAC-1 cells; type: cell-based, human
Procedure: as §1, §2

[4] = system: metastatic colorectal adenocarcinoma (SW620) cells; experiment: MTT proliferation assay, SW620 cells; type: cell-based, human
Procedure: as §1, §2

[5] = system: normal human foreskin fibroblasts (HFF-1); experiment: MTT proliferation assay, normal fibroblasts HFF-1; type: cell-based; conditions: 72 h incubation
Procedure: as §1, §2

[6] = Homo sapiens, A549, 72 h incubation
[7] = Homo sapiens, CFPAC-1, 72 h incubation
[8] = Homo sapiens, SW-620, 72 h incubation

Compound	IC50 ([1]; 72 h incubation) [µM]	IC50 [2] [µM]	IC50 ([3]; 72 h incubation) [µM]	IC50 ([4]; 72 h incubation) [µM]	IC50 [1, 6] [µM]	IC50 ([2]; Homo sapiens, HeLa) [µM]	IC50 [3, 7] [µM]	IC50 [4, 8] [µM]	IC50 [5] [µM]	melting point [°C]
{1-[2-(4-Chloro-7H-pyrrolo[2,3-d]pyrimidin-7-yl)ethyl]-1H-1,2,3-triazol-4-yl}methyl ether [5d]	> 100	> 100	36.5 ± 3.9	53.5 ± 4.8	–	–	–	–	–	–
c1nc(N2CCCCC2)c2ncn(CCn3cc(COc4ccc(OCc5cn(CCn6cnc7c(N8CCCCC8)ncnc76)nn5)cc4)nn3)c2n1 [9a, 1,4-Bis{[1-(2-(6-(piperidin-1-yl)-9H-purin-9-yl)ethyl)-1H-1,2,3-triazol-4-yl]methoxy}benzene]	–	–	–	–	53.5 ± 8	16.2 ± 0.05	9.1 ± 1.3	43.5 ± 4.4	0.76	–
C#CCCCc1cn(CCn2cnc3c(N4CCCCC4)ncnc32)nn1 [9g, 9-{2-[4-(pent-4-yn-1-yl)-1H-1,2,3-triazol-1-yl]ethyl}-6-(piperidin-1-yl)-9H-purine]	–	–	–	–	> 100	72.2 ± 9	75.2 ± 12.2	> 100	–	–
{1-[2-(4-(Pyrrolidin-1-yl)-7H-pyrrolo[2,3-d]pyrimidin-7-yl)ethyl]-1H-1,2,3-triazol-4-yl}methyl ether [7d]	> 100	> 100	> 100	> 100	–	–	–	–	–	–
C#CCCCc1cn(CCn2cnc3c(N)ncnc32)nn1 [11g, 6-Amino-9-{2-[4-(pent-4-yn-1-yl)-1H-1,2,3-triazol-1-yl]ethyl}-9H-purine]	–	–	–	–	> 100	> 100	> 100	> 100	–	226 to 228
c1nc(N2CCCCC2)c2ccn(CCn3cc(COc4ccc(OCc5cn(CCn6ccc7c(N8CCCCC8)ncnc76)nn5)cc4)nn3)c2n1 [6a, 1,4-Bis{[1-(2-(4-(piperidin-1-yl)-7H-pyrrolo[2,3-d]pyrimidin-7-yl)ethyl)-1H-1,2,3-triazol-4-yl]methoxy}benzene]	–	–	–	–	> 100	> 100	> 100	> 100	–	185 to 187
c1nc(N2CCCCC2)c2ccn(CCn3cc(COc4ccc(-c5ccc(OCc6cn(CCn7ccc8c(N9CCCCC9)ncnc87)nn6)cc5)cc4)nn3)c2n1 [6b, 4,4′-Bis{[1-(2-(4-(piperidin-1-yl)-7H-pyrrolo[2,3-d]pyrimidin-7-yl)ethyl)-1H-1,2,3-triazol-4-yl]methoxy}-1,1′-biphenyl]	–	–	–	–	53.9 ± 2.1	68.5 ± 3.2	17.4 ± 6.3	24.7 ± 8.7	–	137 to 139
Nc1ncnc2c1ncn2CCn1cc(COc2ccc(OCc3cn(CCn4cnc5c(N)ncnc54)nn3)cc2)nn1 [11a, 1,4-Bis{[1-(2-(6-amino-9H-purin-9-yl)ethyl)-1H-1,2,3-triazol-4-yl]methoxy}benzene]	–	–	–	–	> 100	> 100	> 100	> 100	–	–
Clc1ncnc2c1ccn2CCn1cc(CCCc2cn(CCn3ccc4c(Cl)ncnc43)nn2)nn1 [5c, 1,3-Bis{1-[2-(4-chloro-7H-pyrrolo[2,3-d]pyrimidin-7-yl)ethyl]-1H-1,2,3-triazol-4-yl}propane]	–	–	–	–	99.6 ± 1.5	99.7 ± 5.9	74.9 ± 3.8	> 100	–	–
C#CCOc1ccc(OCc2cn(CCn3cnc4c(N)ncnc43)nn2)cc1 [11e, 6-amino-9-{2-[4-((4-(prop-2-yn-1-yloxy)phenoxy)methyl)-1H-1,2,3-triazol-1-yl]ethyl}-9H-purine]	–	–	–	–	> 100	> 100	> 100	> 100	–	> 280
Clc1ncnc2c1ccn2CCn1cc(COc2ccc(-c3ccc(OCc4cn(CCn5ccc6c(Cl)ncnc65)nn4)cc3)cc2)nn1 [5b, 4,4′-Bis{[1-(2-(4-chloro-7H-pyrrolo[2,3-d]pyrimidin-7-yl)ethyl)-1H-1,2,3-triazol-4-yl]-methoxy}-1,1′-biphenyl]	–	–	–	–	6.3 ± 1.2	> 100	> 100	> 100	0.13	–
{1-[2-(6-(Piperidin-1-yl)-9H-purin-9-yl)ethyl]-1H-1,2,3-triazol-4-yl}methyl ether [10d]	87.3 ± 4.4	66.9 ± 11.2	52.5 ± 4.6	63.4 ± 3.6	–	–	–	–	–	–
6-(piperidin-1-yl)-9-{2-[4-(((4′-(prop-2-yn-1-yloxy)-[1,1′-biphenyl]-4-yl)oxy)methyl)-1H-1,2,3-triazol-1-yl]ethyl}-9H-purine [10f]	62.1 ± 2.3	8.1 ± 2.2	6.5 ± 0.78	98 ± 1.3	–	–	–	–	–	–
c1nc(N2CCCC2)c2ccn(CCn3cc(COc4ccc(-c5ccc(OCc6cn(CCn7ccc8c(N9CCCC9)ncnc87)nn6)cc5)cc4)nn3)c2n1 [7b, 4,4′-Bis{[1-(2-(4-(pyrrolidin-1-yl)-7H-pyrrolo[2,3-d]pyrimidin-7-yl)ethyl)-1H-1,2,3-triazol-4-yl]methoxy}-1,1′-biphenyl]	–	–	–	–	69 ± 1.2	54.6 ± 5.2	77.4 ± 3.5	> 100	–	187 to 189
c1nc(N2CCCC2)c2ccn(CCn3cc(CCCc4cn(CCn5ccc6c(N7CCCC7)ncnc65)nn4)nn3)c2n1 [7c, 1,3-Bis{1-[2-(4-(pyrrolidin-1-yl)-7H-pyrrolo[2,3-d]pyrimidin-7-yl)ethyl]-1H-1,2,3-triazol-4-yl}propane]	–	–	–	–	> 100	80 ± 1.5	65.3 ± 5.7	> 100	–	170 to 172
{1-[2-(6-Amino-9H-purin-9-yl)ethyl]-1H-1,2,3-triazol-4-yl}methyl ether [11d]	> 100	> 100	> 100	> 100	–	–	–	–	–	–
c1nc(N2CCCCC2)c2ncn(CCn3cc(CCCc4cn(CCn5cnc6c(N7CCCCC7)ncnc65)nn4)nn3)c2n1 [9c, 1,3-Bis{1-[2-(6-(piperidin-1-yl)-9H-purin-9-yl)ethyl]-1H-1,2,3-triazol-4-yl}propane]	–	–	–	–	> 100	41.2 ± 0.99	53.9 ± 3.4	> 100	–	–
C#CCOc1ccc(OCc2cn(CCn3cnc4c(N5CCCCC5)ncnc43)nn2)cc1 [9e, 6-(piperidin-1-yl)-9-{2-[4-((4-(prop-2-yn-1-yloxy)phenoxy)methyl)-1H-1,2,3-triazol-1-yl]ethyl}-9H-purine]	–	–	–	–	58.7 ± 10.2	17.1 ± 1.3	23.4 ± 4.2	35.7 ± 0.79	–	233 to 236
Clc1ncnc2c1ccn2CCn1cc(COc2ccc(OCc3cn(CCn4ccc5c(Cl)ncnc54)nn3)cc2)nn1 [5a, 1,4-Bis{[1-(2-(4-chloro-7H-pyrrolo[2,3-d]pyrimidin-7-yl)ethyl)-1H-1,2,3-triazol-4-yl]methoxy}benzene]	–	–	–	–	> 100	77 ± 2.6	> 100	> 100	–	–
c1nc(N2CCCC2)c2ncn(CCn3cc(COc4ccc(OCc5cn(CCn6cnc7c(N8CCCC8)ncnc76)nn5)cc4)nn3)c2n1 [10a, 1,4-Bis{[1-(2-(6-(pyrrolidin-1-yl)-9H-purin-9-yl)ethyl)-1H-1,2,3-triazol-4-yl]methoxy}benzene]	–	–	–	–	95 ± 3.2	60.6 ± 5.9	48.5 ± 1.6	98.3 ± 7.4	–	–
C#CCCCc1cn(CCn2ccc3c(Cl)ncnc32)nn1 [5g, 4-chloro-7-{2-[4-(pent-4-yn-1-yl)-1H-1,2,3-triazol-1-yl]ethyl}-7H-pyrrolo[2,3-d]pyrimidine]	–	–	–	–	> 100	75 ± 3.5	19.5 ± 4	80.5 ± 14.9	–	–
C#CCOCc1cn(CCn2cnc3c(N)ncnc32)nn1 [11h, 6-amino-9-{2-[4-((prop-2-yn-1-yloxy)methyl)-1H-1,2,3-triazol-1-yl]ethyl}-9H-purine]	–	–	–	–	> 100	> 100	> 100	> 100	–	191 to 193
{1-[2-(6-(Piperidin-1-yl)-9H-purin-9-yl)ethyl]-1H-1,2,3-triazol-4-yl}methyl ether [9d]	73.1 ± 7.7	34.7 ± 12.1	56.8 ± 2.9	66.1 ± 3	–	–	–	–	–	–
